Test [1] addresses GST-Syk Full Protein (human) (Homo sapiens, UniProt P43405). The test can be described thus: Syk kinase inhibition test (HTRF method). It counts as biochemical. The settings on record: HTRF, 100 μM ATP, 30 min room temperature, average; read-out: sykHTRF ave IC50. The method in brief:
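Human GST-Syk full-length (6.4 nM) phosphorylated biotin-EDPDYEWPSA-NH2 (250 nM) with 100 μM ATP in HEPES pH 7.0/MgCl2 buffer, 2% DMSO, 30 min at room temperature. EDTA stop, then HTRF detection (streptavidin-XL665, Eu anti-phosphotyrosine) after 1 h; 665/620 ratio read.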
For orientation: Time-resolved FRET reads energy transfer from a long-lived donor to a nearby acceptor.

The test system of test [2] is cultured human mast cells. The test can be described thus: Degranulation inhibition test using cultured human mast cells (IgE cross-linking, β-Hexosaminidase release). The class given is cell-based. The settings on record: Mast cell; cultured human mast cells, anti-hIgE stimulation, β-Hexosaminidase index, average; read-out: human degranulation ave. IC50. Summed up: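 CD34+ cord-blood cells cultured ≥8 weeks with SCF/IL-6/IL-3; FcεRI primed 5 days with rhIL-4 (1 ng/mL) and hIgE (0.5 μg/mL). Compound (0.1% DMSO) preincubated 10 min at 37 °C, then anti-IgE (final 10 μg/mL) 30 min; released β-hexosaminidase read at 405 nm versus total lysate, IC50 (M).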

Where a name gives a salt, the structure may show the parent alone.

A word on the IC50: it is the midpoint of a concentration-inhibition curve. As to `Cc1ccnc(Nc2cccc(-c3cnc(CNC(=O)CCO)s3)n2)c1` [Compound A-186], the concentration for half-maximal inhibition (IC50) in test [1] and in test [2] was 100 to 1000 nM in each case.
`Cc1ccnc(Nc2cccc(-c3cnc(C4CCN(C(=O)CO)CC4)s3)n2)c1` [Compound A-187, 2-hydroxy-1-(4-{5-[6-(4-methylpyridin-2-ylamino)pyridin-2-yl]thiazol-2-yl}piperidin-1-yl)ethanone]: the results for the 50% inhibitory concentration (IC50) in test [1] and in test [2] were less than 100 nM and 100 to 1000 nM, respectively.
Regarding `COc1ccnc(Nc2cccc(-c3cnc([C@H]4CC[C@H](C(=O)O)CC4)s3)n2)c1` [Compound A-188, trans-4-{5-[6-(4-methoxypyridin-2-ylamino)pyridin-2-yl]thiazol-2-yl}cyclohexanecarboxylic acid], the half-inhibitory concentration (IC50) in test [1] was less than 100 nM; in test [2] it was 100 to 1000 nM.
As to `Cc1ccnc(Nc2cccc(-c3cnc(C4CCN(CCO)CC4)s3)n2)c1` [Compound A-189], the concentration for half-maximal inhibition (IC50) in test [1] and in test [2] was 100 to 1000 nM each time.
For the compound `CC(=O)N1CCN(Cc2ncc(-c3cccc(Nc4cc(C)ccn4)n3)s2)CC1` [Compound A-190], the IC50 in test [1] and in test [2] was 100 to 1000 nM each time.
As for `Cc1ccnc(Nc2cccc(-c3cnc(CN[C@H]4CC[C@H](O)CC4)s3)n2)c1` [Compound A-191], the IC50 in test [1] and in test [2] was 100 to 1000 nM throughout.
On to `Cc1ccnc(Nc2cccc(-c3cnc(C4CCN(C(=O)CC(=O)O)CC4)s3)n2)c1` [Compound A-192, 3-(4-{5-[6-(4-methylpyridin-2-ylamino)pyridin-2-yl]thiazol-2-yl}piperidin-1-yl)-3-oxopropionic acid hydrochloride], for which the IC50 in test [1] was less than 100 nM; in test [2] it was greater than 1000 nM.
Consider `Cc1ccnc(Nc2cccc(-c3cnc(CN4CCOCC4)s3)n2)c1` [Compound A-193], for which the half-maximal inhibitory concentration (IC50) in test [1] and in test [2] was 100 to 1000 nM throughout.
Take `Cc1ccnc(Nc2cccc(-c3cnc(CN4CCNCC4)s3)n2)c1` [Compound A-194, N-(4-methylpyridin-2-yl)-N-{6-[2-(piperazin-1-ylmethyl)thiazol-5-yl]pyridin-2-yl}amine]: the IC50 in test [1] was less than 100 nM; in test [2], 100 to 1000 nM.
The corresponding values for `Cc1ccnc(Nc2cccc(-c3cnc(COC(=O)NCC4(O)CCCCC4)s3)n2)c1` [Compound A-195] are 100 to 1000 nM and 100 to 1000 nM.
The corresponding values for `Cc1ccnc(Nc2cccc(-c3cnc(CNCC4(O)CCCCC4)s3)n2)c1` [Compound A-196] are 100 to 1000 nM and 100 to 1000 nM.
For the compound `Cc1ccnc(Nc2cccc(-c3cnc(CN4CCC(N)CC4)s3)n2)c1` [Compound A-197, 1-{5-[6-(4-methylpyridin-2-ylamino)pyridin-2-yl]thiazol-2-ylmethyl}piperidin-4-ylamine], the half-maximal inhibitory concentration (IC50) is less than 100 nM in test [1] and 100 to 1000 nM in test [2].
Take `Cc1ccnc(Nc2cccc(-c3cnc(CN4CCN(S(C)(=O)=O)CC4)s3)n2)c1` [Compound A-198]: the half-maximal inhibitory concentration (IC50) in test [1] and in test [2] was 100 to 1000 nM throughout.
With `CC(=O)N[C@@H](C)c1ncc(-c2cccc(Nc3cc(C4(C)OCCO4)ccn3)n2)s1` [Compound A-199], the 50% inhibitory concentration (IC50) in test [1] and in test [2] was 100 to 1000 nM throughout.
As for `Cc1ccnc(Nc2cccc(-c3cnc(CNS(C)(=O)=O)s3)n2)c1` [Compound A-200, N-{5-[6-(4-methylpyridin-2-ylamino)pyridin-2-yl]thiazol-2-ylmethyl}methanesulfonamide], the IC50 is less than 100 nM in test [1] and 100 to 1000 nM in test [2].
Regarding `Cc1ccnc(Nc2cccc(-c3cnc(CNC(=O)CO)s3)n2)c1` [Compound A-201], the 50% inhibitory concentration (IC50) in test [1] and in test [2] was 100 to 1000 nM in each case.
As to `CC(=O)N[C@H]1CC[C@H](c2ncc(-c3cccc(Nc4cc(C)ccn4)n3)s2)CC1` [Compound A-202, N-(trans-4-{5-[6-(4-methylpyridin-2-ylamino)pyridin-2-yl]thiazol-2-yl}cyclohexyl)acetamide], the IC50 in test [1] was less than 100 nM; in test [2], greater than 1000 nM.
Regarding `COC(=O)[C@H]1CC[C@H](c2ncc(-c3cccc(Nc4cc(Cl)ccn4)n3)s2)CC1` [Compound A-203], the 50% inhibitory concentration (IC50) in test [1] and in test [2] was 100 to 1000 nM each time.
On to `O=C(O)[C@H]1CC[C@H](c2ncc(-c3cccc(Nc4cc(Cl)ccn4)n3)s2)CC1` [Compound A-204, trans-4-{5-[6-(4-chloropyridin-2-ylamino)pyridin-2-yl]thiazol-2-yl}cyclohexanecarboxylic acid], for which the 50% inhibitory concentration (IC50) in test [1] is less than 100 nM; in test [2], 100 to 1000 nM.
As for `Cc1ccnc(Nc2cccc(-c3cnc(CCO)s3)n2)c1` [Compound A-205, 2-{5-[6-(4-methylpyridin-2-ylamino)pyridin-2-yl]thiazol-2-yl}ethanol], the IC50 is less than 100 nM in test [1] and 100 to 1000 nM in test [2].
As to `Cc1ccnc(Nc2cccc(-c3cnc(COC(=O)NC[C@H]4CC[C@H](C(=O)O)CC4)s3)n2)c1` [Compound A-206], the IC50 in test [1] and in test [2] was greater than 1000 nM throughout.
Take `Cc1ccnc(Nc2cccc(-c3cnc(CNC[C@H]4CC[C@H](C(=O)O)CC4)s3)n2)c1` [Compound A-207]: the figures for the half-inhibitory concentration (IC50) in test [1] and in test [2] were 100 to 1000 nM and greater than 1000 nM, respectively.
As for `Cc1ccnc(Nc2cccc(-c3cnc(CNC[C@H]4CC[C@H](CO)CC4)s3)n2)c1` [Compound A-208], the IC50 was 100 to 1000 nM in test [1] and greater than 1000 nM in test [2].
`Cc1ccnc(Nc2cccc(-c3cnc(CN4CCN(C)CC4)s3)n2)c1` [Compound A-209]: the IC50 in test [1] is 100 to 1000 nM; in test [2], greater than 1000 nM.
Turning to `CC(=O)NC1CCN(Cc2ncc(-c3cccc(Nc4cc(C)ccn4)n3)s2)CC1` [Compound A-210], the IC50 in test [1] and in test [2] was greater than 1000 nM in each case.
As to `Cc1ccnc(Nc2cccc(-c3cnc([C@H]4CC[C@H](CO)CC4)s3)n2)c1` [Compound A-211, (trans-4-{5-[6-(4-methylpyridin-2-ylamino)pyridin-2-yl]thiazol-2-yl}cyclohexyl)methanol], the half-inhibitory concentration (IC50) in test [1] is less than 100 nM; in test [2] it was 100 to 1000 nM.
`CC(=O)N[C@@H](C)c1ncc(-c2cccc(Nc3cc(C(C)=O)ccn3)n2)s1` [Compound A-212]: the IC50 in test [1] and in test [2] was 100 to 1000 nM throughout.
For `COC(=O)[C@H]1CC[C@H](c2ncc(-c3cccc(Nc4cc5ccccc5cn4)n3)s2)CC1` [Compound A-213], the concentration for half-maximal inhibition (IC50) in test [1] is greater than 1000 nM; in test [2] it was 100 to 1000 nM.
With `COc1ccc(NCc2ncc(-c3cccc(Nc4cc(C)ccn4)n3)s2)cc1` [Compound A-214], the results for the IC50 in test [1] and in test [2] were 100 to 1000 nM and greater than 1000 nM, respectively.
As to `O=C(O)[C@H]1CC[C@H](c2ncc(-c3cccc(Nc4cc5ccccc5cn4)n3)s2)CC1` [Compound A-215, trans-4-{5-[6-(isoquinolin-3-ylamino)pyridin-2-yl]thiazol-2-yl}cyclohexanecarboxylic acid], the concentration for half-maximal inhibition (IC50) in test [1] is less than 100 nM; in test [2] it was 100 to 1000 nM.
Consider `Cc1ccnc(Nc2cccc(-c3cnc(CNCCO)s3)n2)c1` [Compound A-216], for which the IC50 was 100 to 1000 nM in test [1] and greater than 1000 nM in test [2].
Consider `Cc1ccnc(Nc2cccc(-c3cnc(CN4CCN(CCO)CC4)s3)n2)c1` [Compound A-217], for which the IC50 was 100 to 1000 nM in test [1] and greater than 1000 nM in test [2].
The corresponding values for `Cc1ccnc(Nc2cccc(-c3cnc(CCc4ccc(N)cc4)s3)n2)c1` [Compound A-218] are 100 to 1000 nM and 100 to 1000 nM.
